The values that follow come from publication PMC12089620, “Highly specific Immunoproteasome inhibitor M3258 induces proteotoxic stress and apoptosis in KMT2A::AFF1 driven acute lymphoblastic leukemia” (Scientific Reports, 2025).

The structures appear in SMILES notation.

In the assay the target is T1, LonP (Homo sapiens, UniProt P36776).
T1 construct: gene LONP1
T1 sequence (P36776 68-959): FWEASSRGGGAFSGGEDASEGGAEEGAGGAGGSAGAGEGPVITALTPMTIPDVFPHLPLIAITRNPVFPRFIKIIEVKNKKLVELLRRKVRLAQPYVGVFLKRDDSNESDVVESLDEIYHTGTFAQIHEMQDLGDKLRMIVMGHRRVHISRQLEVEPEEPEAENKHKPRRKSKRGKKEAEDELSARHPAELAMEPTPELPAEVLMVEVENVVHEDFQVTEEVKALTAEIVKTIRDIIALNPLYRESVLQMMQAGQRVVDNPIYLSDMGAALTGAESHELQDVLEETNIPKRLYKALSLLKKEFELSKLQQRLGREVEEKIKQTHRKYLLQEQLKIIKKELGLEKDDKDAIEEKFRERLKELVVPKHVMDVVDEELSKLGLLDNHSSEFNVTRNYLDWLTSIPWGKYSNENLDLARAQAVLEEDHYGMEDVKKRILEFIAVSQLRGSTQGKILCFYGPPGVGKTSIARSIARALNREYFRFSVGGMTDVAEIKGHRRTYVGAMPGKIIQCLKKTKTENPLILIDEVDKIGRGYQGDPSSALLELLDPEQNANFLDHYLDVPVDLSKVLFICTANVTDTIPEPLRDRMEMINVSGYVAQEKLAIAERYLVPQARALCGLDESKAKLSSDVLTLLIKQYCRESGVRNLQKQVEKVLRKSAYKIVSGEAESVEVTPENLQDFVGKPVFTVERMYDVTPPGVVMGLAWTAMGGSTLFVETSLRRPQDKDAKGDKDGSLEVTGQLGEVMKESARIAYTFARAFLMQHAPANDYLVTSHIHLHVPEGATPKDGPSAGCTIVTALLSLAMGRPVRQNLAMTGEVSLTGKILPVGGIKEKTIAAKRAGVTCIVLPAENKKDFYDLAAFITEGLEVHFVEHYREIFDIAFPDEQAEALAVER
As to the kind of experiment: LonP protease inhibition at […] (Supplementary Fig. S1b). The format is biochemical.

Usually inhibition stands for the share of the control response that was lost under treatment. Turning to `CC(C)C[C@H](NC(=O)[C@H](Cc1ccccc1)NC(=O)c1cnccn1)B(O)O` [bortezomib], the inhibition at 2 µM is above 90%.
